Square brackets hold non-standard residues; d marks the D form.
Key:
TNBS-treated mice = assay: TNBS-induced Inflammatory Bowel Disease (IBD) model; format: in vivo; conditions: intranasal administration together with TNBS
Description: Inflammatory Bowel Disease (IBD) was induced in mice by the administration of trinitrobenzenesulphonic acid (TNBS), in 40% EtOH, to the mice. […] The IBD model is described in, for example, Keates et al. (2000) Gastroenterology 119:972–82.
The administration of EtOH alone (no TNBS) caused no weight loss in the animals. The “untreated” mice were given only the TNBS administration. The aMSH(4-13) mice were given an administration of TNBS, together with an intranasal administration of the aMSH(4-13) analog, which reduced the severity of the TNBS-induced weight loss.

Leptin −/− mice = assay: Leptin -/- mouse model of obesity; format: in vivo; conditions: 1 μg daily for three weeks, intranasally, intrarectally or subcutaneously; compared to untreated mice; FIG. 18A
Method: Leptin −/− mice were used as a model of mammalian obesity to evaluate the effectiveness of an α-MSH analog and an α-MSH encoding nucleic acid to treat the condition. […] Leptin −/− obese mice were administered (either intranasally, intrarectally, or subcutaneously) with 1 μg of the α-MSH(4-13) analog daily for three weeks.

Ac-CEH[dF]RWCKPV-NH2 (cysteine pairing not given here) [α-MSH(4-13) analog]
survival of TNBS-treated animals (TNBS-treated mice): increased the survival | TNBS-induced weight loss (TNBS-treated mice; FIG. 17A): decreased the weight loss | weight gain (Leptin −/− mice): a decrease in weight gain

Source: patent US7169603B2, “α-MSH related compounds and methods of use” (MGI Pharma Biologics, Inc., priority 2000, dated 2007)
